Data from patent US20140271847A1, “FORMULATIONS AND METHODS FOR RAPID PENILE ERECTIONS” (SatisPharma, LLC, priority 2013, published 2014).
Structures can show the parent of a compound that is named as a salt.

Key:
[1] = cited from earlier work
[2] = test system: penis; test: Time to penile erection / firmness after taking the ED medication or formulation; assay type: in vivo, human; conditions: blood circulation limited to about 50%; for time it remains effective / time to become effective: normal dose of 100 mg Viagra® or 10 mg Levitra®, one subject
Excerpt: Responses of individuals to ED medications may vary widely from one to another and from time to time. The nature and intensity of emotional and physical stimulation are significant factors, and the health of the individual can be significant. Fatigue, time of day, time since last coitus or ejaculation, and blood circulation are factors influencing response. One particular subject had no response to Cialis®. Their heart damage and occluded artery limit blood circulation to about 50%. Thus this particular subject is not a good benchmark for measuring the effectiveness of each formulation; this particular subject experiences a normal dose of 100 mg Viagra® or 10 mg Levitra® usually takes about 2 hours to become effective and then remains effective for about 8 hours (double the usual times for a person with normal blood circulation). Nevertheless, this subject has achieved erection and cotius within 30 minutes using some formulations of this invention.

[3] = Solubilities of ED medications in solvents known to permeate the skin (Example 1); assay type: physicochemical
Method: A series of experiments were performed in order to learn the solubilities of ED medications in solvents known to permeate the skin safely.

[4] = Solubility of ED medications as stated in the description; assay type: physicochemical
Excerpt: In order for an ED medication to be absorbed into mucosal tissues, it must first be dissolved in a medium of transport. […] Sildenafil citrate is also more soluble in ethanol than water and in propylene glycol than in water.

| SMILES | solubility in water (in words) [1] | response to ED medication ([2]; one particular subject) | solubility in alcohols (in words) ([1]; alcohols) | time it remains effective [2] | time to become effective [2] | solubility in ethanol compared with water ([1]; ethanol versus water) | solubility in propylene glycol compared with water ([1]; propylene glycol versus water) | solubility in water relative to pH 7.0 ([1]; water at pH=4, relative to 3.5 mg/ml at pH=7.0) | solubility in water ([1]; water at pH=7.0) | Result (solubility) ([3]; 35 mg sildenafil citrate in diethylene glycol monoethyl ether, 10 ml) | Result (solubility) ([3]; 35 mg sildenafil citrate in ethanol, 190 proof, 10 ml) | Result (solubility) ([3]; 35 mg sildenafil citrate in glycerin, 10 ml + citric acid, 150 mg) | Result (solubility) ([3]; 35 mg sildenafil citrate in isopropyl myristate, 10 ml) | Result (solubility) ([3]; 35 mg sildenafil citrate in propylene glycol, 10 ml) | Result (solubility) ([3]; 35 mg sildenafil citrate in triacetin 10 ml) | Result (solubility) ([3]; 49 mg sildenafil citrate in nicotine, 2 ml) | Result (solubility) ([3]; 70 mg sildenafil citrate in ethanol, 190 proof, 10 ml) | Result (solubility) ([3]; 70 mg sildenafil citrate in propylene glycol, 10 ml) | solubility in nicotine [4] |
| --- | --- | --- | --- | --- | --- | --- | --- | --- | --- | --- | --- | --- | --- | --- | --- | --- | --- | --- | --- |
| CN1CC(=O)N2[C@H](c3ccc4c(c3)OCO4)c3[nH]c4ccccc4c3C[C@@H]2C1=O [Tadalafil, tadalafil] | freely soluble | no response | – | – | – | – | – | – | – | – | – | – | – | – | – | – | – | – | – |
| CCCc1nc(C)c2c(=O)[nH]c(-c3cc(S(=O)(=O)N4CCN(CC)CC4)ccc3OCC)nn12 [Vardenafil, vardenafil hydrochloride] | freely soluble | – | freely soluble | about 8 hours | about 2 hours | – | – | – | – | – | – | – | – | – | – | – | – | – | – |
| CCCc1nn(C)c2c(=O)[nH]c(-c3cc(S(=O)(=O)N4CCN(C)CC4)ccc3OCC)nc12.O=C(O)CC(O)(CC(=O)O)C(=O)O [sildenafil citrate] | – | – | – | about 8 hours | about 2 hours | more soluble | more soluble | about triple | 3500 µg/mL | slightly soluble | fully soluble | dispersion | mostly soluble | fully soluble | dispersion | fully soluble | fully soluble | mostly soluble | surprisingly high solubility |
